Assay [1] deals with T1, human Cot catalytic domain (30-397 amino acids) (Homo sapiens, UniProt P41279).
T1 construct: Purified recombinant human Cot catalytic domain (30-397 amino acids) was purchased from Cama Biosciences; purchased Cama Biosciences (so in the source)
Nature of the assay: High Throughput Cot Biochemical Assay (KinEASE TR-FRET). The note with it: read-out: IC50 HTRF. In outline: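 TR-FRET readout: Eu-labeled phospho-specific antibody binds XL665-tagged STK3 peptide after phosphorylation by Cot (aa 30-397, 5 nM). Conditions: 400 μM ATP, 1 μM peptide, MOPS pH 7.0 buffer with MgOAc, DTT, BSA, NP-40, glycerol; 0.1% DMSO.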
On the technique in general: Time-resolved FRET reads energy transfer from a long-lived donor to a nearby acceptor.

Assay [2] deals with TNFα production in LPS-stimulated human monocytes. Kind of assay: Cot Monocyte TNFα Cell Based Assay. The note with it: read-out: EC50 TNF. The procedure, abridged:
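TR-FRET read-out of total secreted TNFα, normalized as % control (unstimulated = 0%, LPS-stimulated = 100%). Cells (5,000/well) were exposed to compound 1 h at 37 °C, then to 50 pg/ml LPS for a further 4 h.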

The mark [3] stands for this setting: Cot KinEASE TR-FRET, 400 μM ATP.
The mark [4] stands for this setting: Homo sapiens, Monocyte, LPS-stimulated human monocytes, TNFα TR-FRET.
Setting [5] is: Cot biochemical HTRF (KinEASE TR-FRET) assay.
[6] abbreviates: Homo sapiens, Monocyte, TNFα in LPS-stimulated human monocytes.
Setting [7] is: Cot KinEASE TR-FRET (HTRF) biochemical assay, 400 μM ATP.

Read-outs that look alike come from different tables or passages of the source.

T1 sequence (P41279 30-397): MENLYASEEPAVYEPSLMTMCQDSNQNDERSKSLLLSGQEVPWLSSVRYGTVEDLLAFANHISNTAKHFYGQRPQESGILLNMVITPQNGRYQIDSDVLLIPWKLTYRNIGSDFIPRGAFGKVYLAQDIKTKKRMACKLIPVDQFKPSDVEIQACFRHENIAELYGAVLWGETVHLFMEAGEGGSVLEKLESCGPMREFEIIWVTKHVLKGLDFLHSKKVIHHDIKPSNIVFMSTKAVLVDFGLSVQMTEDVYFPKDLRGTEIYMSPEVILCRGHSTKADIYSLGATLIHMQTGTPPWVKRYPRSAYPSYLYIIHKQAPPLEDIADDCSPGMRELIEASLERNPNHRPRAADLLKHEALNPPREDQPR

By IC50 is commonly meant the point on the concentration scale where inhibition reaches its midpoint. A word on the EC50: it is the concentration giving half of the maximal effect. Consider `Cc1c([C@H](Nc2cc(Cl)c3ncc(C#N)c(NCC(C)(C)C)c3c2)c2cn(C3(C(F)F)CC3)nn2)cccc1-n1cnnn1` [Example 1062, (S)-8-chloro-6-(((1-(1-(difluoromethyl)cyclopropyl)-1H-1,2,3-triazol-4-yl)(2-methyl-3-(1H-tetrazol-1 yl)phenyl)methyl)amino)-4-(neopentylamino)quinoline-3-carbonitrile], for which, in assay [1] (setting [3]), the IC50 was 3 nM. Also, the half-maximal effective concentration (EC50) in assay [2] (setting [4]) was found to be 70 nM.
As to `CC1(CNc2c(C#N)cnc3c(Cl)cc(N[C@@H](c4ccccc4)c4cn(C5CCN(C(C)(C)C)CC5)nn4)cc23)CC1` [Example 455, (S)-6-(((1-(1-(tert-butyl)piperidin-4-yl)-1H-1,2,3-triazol-4-yl)(phenyl)methyl)amino)-8-chloro-4-(((1-methylcyclopropyl)methyl)amino)quinoline-3-carbonitrile], the IC50 in assay [1] (setting [5]) stood at 48 nM. The EC50 in assay [2] (setting [6]) came out at 171 nM.
Regarding `CC(C)(C)N1CCC(n2cc([C@@H](Nc3cc(Cl)c4ncc(C#N)c(NC(=O)c5ccccc5)c4c3)c3ccc(F)cc3)nn2)CC1` [Compound 16, (S)-N-(6-(((1-(1-(tert-butyl)piperidin-4-yl)-1H-1,2,3-triazol-4-yl)(4-fluorophenyl)methyl)amino)-8-chloro-3-cyanoquinolin-4-yl)benzamide], in assay [1] (setting [7]), the IC50 was determined as 1400 nM. For the same compound, the half-maximal effective concentration (EC50) in assay [2] (setting [6]) was > 10000 nM.
As for `[2H][C@](Nc1cc(Cl)c2ncc(C#N)c(N[C@H](CC)c3ccccc3)c2c1)(c1cccc(C#N)c1)c1cnnn1C1CC1` [Compound 37], in assay [1] (setting [7]), the IC50 is 810 nM. For the same compound, the EC50 in assay [2] (setting [6]) was > 1000 nM.
With `Cc1c(-c2cnn(C)c2)cccc1[C@H](Nc1cc(C#N)c2ncc(C#N)c(NCC(C)(C)C)c2c1)c1cn(C2(C(F)F)CC2)nn1` [Example 1142, (S)-6-(((1-(1-(difluoromethyl)cyclopropyl)-1H-1,2,3-triazol-4-yl)(2-methyl-3-(1-methyl-1H-pyrazol-4-yl)phenyl)methyl)amino)-4-(neopentylamino)quinoline-3,8-dicarbonitrile], in assay [1] (setting [3]), the IC50 worked out at 2 nM. Moreover, in assay [2] (setting [4]), the EC50 was found to be 31 nM.
In the case of `C[C@@H](Nc1c(C#N)cnc2c(Cl)cc(N[C@@H](c3ccccc3)c3cn(C4CCN(C(C)(C)C)CC4)nn3)cc12)c1ccc(F)cc1` [Example 634, 6-(((S)-(1-(1-(tert-butyl)piperidin-4-yl)-1H-1,2,3-triazol-4-yl)(phenyl)methyl)amino)-8-chloro-4-(((R)-1-(4-fluorophenyl)ethyl)amino) quinoline-3-carbonitrile], the IC50 in assay [1] (setting [5]) turned out to be 30 nM. Besides, in assay [2] (setting [6]), the concentration for a half-maximal effect (EC50) is 3090 nM.
As to `CCC(Nc1c(C#N)cnc2c(Cl)cc(N[C@@H](c3ccccc3)c3cn(C4CCN(C(C)(C)C)CC4)nn3)cc12)C1CCOCC1` (stereo partly drawn) [Example 508, 6-(((S)-(1-(1-(tert-butyl)piperidin-4-yl)-1H-1,2,3-triazol-4-yl)(phenyl)methyl)amino)-8-chloro-4-((1-(tetrahydro-2H-pyran-4-yl)propyl)amino)quinoline-3-carbonitrile], in assay [1] (setting [5]), the IC50 amounted to 5350 nM. For the same compound, in assay [2] (setting [6]), the EC50 was > 10000 nM.
`[2H]C(Nc1cc(Cl)c2ncc(C#N)c(NC(CCC#N)c3ccccc3)c2c1)(c1cn(C2CC2)nn1)c1ccccc1Cl` (stereo not shown) [Example 88, 8-chloro-6-(((2-chlorophenyl) (1-cyclopropyl-1H-1,2,3-triazol-4-yl)methyl-d)amino)-4-((3-cyano-1-phenylpropyl)amino) quinoline-3-carbonitrile]: in assay [1] (setting [7]), the IC50 was determined as 190 nM. Further, the half-maximal effective concentration (EC50) in assay [2] (TNFα in LPS-stimulated human monocytes) was > 1000 nM.
Take `CC(C)(C)N1CCC(n2cc([C@@H](Nc3cc(Cl)c4ncc(C#N)c(N[C@@H]5CCc6ccccc65)c4c3)c3ccccc3)nn2)CC1` [Example 583, 6-(((S)-(1-(1-(tert-butyl)piperidin-4-yl)-1H-1,2,3-triazol-4-yl)(phenyl)methyl)amino)-8-chloro-4-(((R)-2,3-dihydro-1H-inden-1-yl)amino)quinoline-3-carbonitrile]: in assay [1] (setting [5]), the IC50 amounted to 1000 nM. The EC50 in assay [2] (setting [6]) was 4360 nM.
For the compound `Cc1c(-c2cc[nH]n2)cccc1[C@H](Nc1cc(C#N)c2ncc(C#N)c(NCC(C)(C)C)c2c1)c1cn(C2(C(F)(F)F)CC2)nn1` [Example 1132, (S)-6-(((2-methyl-3-(1H-pyrazol-3-yl)phenyl)(1-(1-(trifluoromethyl)cyclopropyl)-1H-1,2,3-triazol-4-yl)methyl)amino)-4-(neopentylamino)quinoline-3,8-dicarbonitrile], the IC50 in assay [1] (setting [3]) worked out at 8 nM. The EC50 in assay [2] (setting [4]) amounted to 175 nM.
With `Cc1c(-c2ccn(C)n2)cccc1[C@H](Nc1cc(Cl)c2ncc(C#N)c(NCC(C)(C)C)c2c1)c1cn(C2(C(F)(F)F)CC2)nn1` [Example 1162, (S)-8-chloro-6-(((2-methyl-3-(1-methyl-1H-pyrazol-3-yl)phenyl) (1-(1-(trifluoromethyl)cyclopropyl)-1H-1,2,3-triazol-4-yl)methyl)amino)-4-(neopentylamino)quinoline-3-carbonitrile], in assay [1] (setting [3]), the IC50 stood at 16 nM. Moreover, the EC50 in assay [2] (setting [4]) was found to be 477 nM.
Take `CC(C)(C)N1CCC(n2cc([C@@H](Nc3cc(Cl)c4ncc(C#N)c(Nc5ccc(F)c(Cl)c5)c4c3)c3cccc(CO)c3)nn2)CC1` [Compound 17, (S)-6-(((1-(1-(tert-butyl)piperidin-4-yl)-1H-1,2,3-triazol-4-yl)(3-(hydroxymethyl)phenyl)methyl)amino)-8-chloro-4-((3-chloro-4-fluorophenyl)amino) quinoline-3-carbonitrile]: the IC50 in assay [1] (setting [7]) turned out to be 4 nM. Also, the EC50 in assay [2] (setting [6]) turned out to be 260 nM.
The corresponding values for `[2H][C@](Nc1cc(Cl)c2ncc(C#N)c(N[C@H](CC#N)C(C)(C)C)c2c1)(c1ccc(F)cc1)c1cn(C2CC2)nn1` [Example 247, 8-chloro-4-(((R)-1-cyano-3,3-dimethylbutan-2-yl)amino)-6-(((S)-(1-cyclopropyl-1H-1,2,3-triazol-4-yl)(4-fluorophenyl)methyl-d)amino)quinoline-3-carbonitrile] are 28 nM and 635 nM.
In the case of `N#Cc1cnc2c(Cl)cc(N[C@@H](c3ccccc3)c3cn(C4CCCC4)nn3)cc2c1Nc1ccc(Cl)c(Cl)c1F` [Example 534, (S)-8-chloro-6-(((1-cyclopentyl-1H-1,2,3-triazol-4-yl)(phenyl)methyl)amino)-4-((3,4-dichloro-2-fluorophenyl)amino) quinoline-3-carbonitrile], the IC50 in assay [1] (setting [5]) is 57 nM. The 50% effective concentration (EC50) in assay [2] (setting [6]) was determined as 3150 nM.
The corresponding values for `CC(C)(C)N1CCC(n2cc([C@@H](Nc3cc(Cl)c4ncc(C#N)c(NS(=O)(=O)c5ccccc5)c4c3)c3ccccc3)nn2)CC1` [Example 520, (S)-N-(6-(((1-(1-(tert-butyl)piperidin-4-yl)-1H-1,2,3-triazol-4-yl)(phenyl)methyl)amino)-8-chloro-3-cyanoquinolin-4-yl)benzenesulfonamide] are > 10000 nM and > 10000 nM.
For `CC1(n2cc([C@@H](Nc3cc(Cl)c4ncc(C#N)c(Nc5cnc(F)c(F)c5)c4c3)c3ccc(F)cc3)nn2)COC1` [Example 403, (S)-8-chloro-4-((5,6-difluoropyridin-3-yl)amino)-6-(((4-fluorophenyl) (1-(3-methyloxetan-3-yl)-1H-1,2,3-triazol-4-yl)methyl)amino)quinoline-3-carbonitrile], the IC50 in assay [1] (setting [7]) came to 15 nM. In addition, the EC50 in assay [2] (setting [6]) came out at 532 nM.
In the same order, the values of `N#Cc1cnc2c(Cl)cc(N[C@@H](c3ccc(F)cc3)c3cn(-c4ccccc4F)nn3)cc2c1Nc1cnc(F)c(F)c1` [Example 337, (S)-8-chloro-4-((5,6-difluoropyridin-3-yl)amino)-6-(((4-fluorophenyl) (1-(2-fluorophenyl)-1H-1,2,3-triazol-4-yl)methyl)amino)quinoline-3-carbonitrile] are 49 nM and 674 nM.
In the same order, the values of `[2H][C@](Nc1cc(Cl)c2ncc(C#N)c(Nc3ccccc3OC)c2c1)(c1ccc(F)cc1)c1cn(C2CC2)nn1` [Example 160, (S)-8-chloro-6-(((1-cyclopropyl-1H-1,2,3-triazol-4-yl)(4-fluorophenyl)methyl-d)amino)-4-((2-methoxyphenyl)amino)quinoline-3-carbonitrile] are 496 nM and 3260 nM.
Consider `[2H][C@](Nc1cc(Cl)c2ncc(C#N)c(N[C@H](c3ccccc3)[C@@H]3C[C@H]3C#N)c2c1)(c1ccc(F)cc1)c1cn(C2CC2)nn1` [Example 162, 8-chloro-4-(((S)-((1R,2R)-2-cyanocyclopropyl) (phenyl)methyl)amino)-6-(((S)-(1-cyclopropyl-1H-1,2,3-triazol-4-yl)(4-fluorophenyl)methyl-d)amino)quinoline-3-carbonitrile], for which the IC50 in assay [1] (setting [7]) is 7890 nM. In addition, the EC50 in assay [2] (setting [6]) was > 10000 nM.
On to `Cc1c(F)cccc1[C@H](Nc1cc(Cl)c2ncc(C#N)c(NCC(C)(C)C)c2c1)c1cn(C2(C(F)(F)F)CC2)nn1` [Example 1090, (S)-8-chloro-6-(((3-fluoro-2-methylphenyl)(1-(1-(trifluoromethyl)cyclopropyl)-1H-1,2,3-triazol-4-yl)methyl)amino)-4-(neopentylamino)quinoline-3-carbonitrile], for which, in assay [1] (setting [3]), the IC50 amounted to 75 nM. Moreover, the EC50 in assay [2] (setting [4]) worked out at 614 nM.

These data come from US10316017B2, “COT modulators and methods of use thereof” (Gilead Sciences, Inc., priority 2015, dated 2019).
